Results as given in ChEMBL document CHEMBL5463723, “Data for DCP probe BIBO3304” (2023).

Key:
[1] = target: Prostaglandin G/H synthase 2 (Homo sapiens) (UniProt P35354); experiment: Inhibitor of COX-2 in the Eurofins Cerep SafetyScreen44 (BI) by Fluorimetry (Cerep_4186); details: Compound concentration 10.0 uM
[2] = target: 5-hydroxytryptamine receptor 1A (Homo sapiens) (UniProt P08908); experiment: 5-HT1A Eurofins-Cerep binding assay; parameters: ligand concentration 0.5 nM; details: Compound concentration 10.0 uM
[3] = target: 5-hydroxytryptamine receptor 3A (Homo sapiens) (UniProt P46098); experiment: 5-HT3 Eurofins-Cerep binding assay; parameters: ligand concentration 0.5 nM; details: Compound concentration 10.0 uM
5-hydroxytryptamine receptor 3A (Homo sapiens), sequence (P46098 whole entry): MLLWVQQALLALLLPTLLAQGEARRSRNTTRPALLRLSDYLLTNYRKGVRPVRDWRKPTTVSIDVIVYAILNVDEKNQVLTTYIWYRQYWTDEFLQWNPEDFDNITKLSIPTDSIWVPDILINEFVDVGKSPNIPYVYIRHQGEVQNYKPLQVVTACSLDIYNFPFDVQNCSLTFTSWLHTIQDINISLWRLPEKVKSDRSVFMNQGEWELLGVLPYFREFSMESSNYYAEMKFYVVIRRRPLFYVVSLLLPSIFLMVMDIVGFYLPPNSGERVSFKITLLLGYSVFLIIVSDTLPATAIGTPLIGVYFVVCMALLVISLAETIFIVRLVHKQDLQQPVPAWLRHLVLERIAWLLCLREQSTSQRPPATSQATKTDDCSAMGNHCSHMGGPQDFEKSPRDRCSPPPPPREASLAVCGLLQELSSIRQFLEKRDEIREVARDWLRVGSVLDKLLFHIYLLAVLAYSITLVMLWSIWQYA

[4] = target: Angiotensin-converting enzyme (Homo sapiens) (UniProt P12821); experiment: Activity against ACE(HU_AMTCH400) in the Eurofins Cerep SafetyScreen44 (BI) by Photometry (Cerep_3441); details: Compound concentration 10.0 uM
[5] = target: Alpha-1A adrenergic receptor (Homo sapiens) (UniProt P35348); experiment: Agonist activity in the Eurofins Cerep SafetyScreen44 (BI) against ALPHA1AH_ANTAG by Scintillation counting (Cerep_2338); details: Compound concentration 10.0 uM
[6] = target: Beta-1 adrenergic receptor (Homo sapiens) (UniProt P08588); experiment: beta 1 Eurofins-Cerep binding assay; parameters: ligand concentration 0.3 nM; details: Compound concentration 10.0 uM
[7] = target: L-type calcium channel (dihydropyridine site), Cav1.2 alpha-1C (Rattus norvegicus, UniProt P22002); experiment: Inhibitor of CA+/DHPSI/R in the Eurofins Cerep SafetyScreen44 (BI) by Radioactive Assay (Cerep_161); format: protein assay; parameters: scale not given: the % may be the effect or the level left; details: rat brain, probe [3H](+)PN200-110, compound concentration 10 uM, read-out: % Ctrl
L-type calcium channel (dihydropyridine site), Cav1.2 alpha-1C, sequence (P22002 whole entry): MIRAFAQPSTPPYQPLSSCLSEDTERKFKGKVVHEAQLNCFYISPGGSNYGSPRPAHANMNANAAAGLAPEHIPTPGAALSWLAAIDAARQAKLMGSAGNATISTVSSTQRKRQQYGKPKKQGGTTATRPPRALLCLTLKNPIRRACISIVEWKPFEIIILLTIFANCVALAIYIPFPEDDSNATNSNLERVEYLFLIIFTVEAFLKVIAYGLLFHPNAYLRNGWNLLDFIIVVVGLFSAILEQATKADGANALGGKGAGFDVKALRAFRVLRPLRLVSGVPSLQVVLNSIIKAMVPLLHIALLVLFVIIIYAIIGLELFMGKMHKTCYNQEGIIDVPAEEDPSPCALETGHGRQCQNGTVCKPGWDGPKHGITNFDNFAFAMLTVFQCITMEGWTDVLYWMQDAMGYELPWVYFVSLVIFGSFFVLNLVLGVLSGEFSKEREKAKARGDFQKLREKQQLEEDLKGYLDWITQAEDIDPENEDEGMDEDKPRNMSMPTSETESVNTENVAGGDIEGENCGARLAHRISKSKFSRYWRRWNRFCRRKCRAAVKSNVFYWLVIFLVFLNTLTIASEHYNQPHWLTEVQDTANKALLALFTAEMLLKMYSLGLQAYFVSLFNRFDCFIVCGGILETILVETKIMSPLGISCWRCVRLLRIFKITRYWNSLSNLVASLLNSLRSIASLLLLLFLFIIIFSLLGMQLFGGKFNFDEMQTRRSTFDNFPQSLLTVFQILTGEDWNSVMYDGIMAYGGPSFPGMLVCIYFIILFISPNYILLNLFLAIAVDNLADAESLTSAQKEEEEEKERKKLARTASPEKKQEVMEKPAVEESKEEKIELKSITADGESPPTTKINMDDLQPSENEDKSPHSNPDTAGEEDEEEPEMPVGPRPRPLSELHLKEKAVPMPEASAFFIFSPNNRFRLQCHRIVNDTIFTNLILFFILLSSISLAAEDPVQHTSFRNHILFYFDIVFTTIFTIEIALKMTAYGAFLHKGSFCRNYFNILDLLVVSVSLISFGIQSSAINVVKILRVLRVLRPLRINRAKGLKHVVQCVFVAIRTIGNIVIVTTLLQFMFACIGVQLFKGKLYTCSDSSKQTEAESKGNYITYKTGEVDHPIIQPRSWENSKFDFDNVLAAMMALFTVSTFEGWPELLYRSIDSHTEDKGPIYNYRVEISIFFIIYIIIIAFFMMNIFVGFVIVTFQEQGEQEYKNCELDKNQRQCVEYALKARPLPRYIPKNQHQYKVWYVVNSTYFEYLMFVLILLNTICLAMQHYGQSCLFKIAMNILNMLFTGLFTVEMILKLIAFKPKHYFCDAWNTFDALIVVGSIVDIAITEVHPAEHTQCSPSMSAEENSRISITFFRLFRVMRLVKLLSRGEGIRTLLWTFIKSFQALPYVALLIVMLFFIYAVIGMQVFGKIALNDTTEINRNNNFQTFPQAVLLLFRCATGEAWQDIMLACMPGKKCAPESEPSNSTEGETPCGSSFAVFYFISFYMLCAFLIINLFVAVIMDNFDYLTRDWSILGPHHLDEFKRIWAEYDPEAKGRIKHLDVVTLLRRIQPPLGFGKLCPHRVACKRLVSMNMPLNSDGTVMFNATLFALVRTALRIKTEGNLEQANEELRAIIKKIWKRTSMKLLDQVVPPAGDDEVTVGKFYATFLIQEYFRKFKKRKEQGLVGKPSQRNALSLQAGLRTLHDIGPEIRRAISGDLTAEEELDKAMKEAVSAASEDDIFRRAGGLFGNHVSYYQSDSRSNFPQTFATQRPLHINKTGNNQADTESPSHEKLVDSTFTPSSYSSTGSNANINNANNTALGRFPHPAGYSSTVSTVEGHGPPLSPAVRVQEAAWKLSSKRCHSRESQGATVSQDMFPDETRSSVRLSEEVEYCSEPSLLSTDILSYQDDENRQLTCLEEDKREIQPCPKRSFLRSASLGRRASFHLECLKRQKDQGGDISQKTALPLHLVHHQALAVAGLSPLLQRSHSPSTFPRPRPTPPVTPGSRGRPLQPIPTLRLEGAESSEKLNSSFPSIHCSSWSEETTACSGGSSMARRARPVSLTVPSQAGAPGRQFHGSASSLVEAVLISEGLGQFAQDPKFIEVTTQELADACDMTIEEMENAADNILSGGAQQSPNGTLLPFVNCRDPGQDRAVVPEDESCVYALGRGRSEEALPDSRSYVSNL

[8] = target: Sodium-dependent dopamine transporter (Homo sapiens) (UniProt Q01959); experiment: dopamine transporter Eurofins-Cerep binding assay; details: Compound concentration 10.0 uM
Sodium-dependent dopamine transporter (Homo sapiens), sequence (Q01959 whole entry): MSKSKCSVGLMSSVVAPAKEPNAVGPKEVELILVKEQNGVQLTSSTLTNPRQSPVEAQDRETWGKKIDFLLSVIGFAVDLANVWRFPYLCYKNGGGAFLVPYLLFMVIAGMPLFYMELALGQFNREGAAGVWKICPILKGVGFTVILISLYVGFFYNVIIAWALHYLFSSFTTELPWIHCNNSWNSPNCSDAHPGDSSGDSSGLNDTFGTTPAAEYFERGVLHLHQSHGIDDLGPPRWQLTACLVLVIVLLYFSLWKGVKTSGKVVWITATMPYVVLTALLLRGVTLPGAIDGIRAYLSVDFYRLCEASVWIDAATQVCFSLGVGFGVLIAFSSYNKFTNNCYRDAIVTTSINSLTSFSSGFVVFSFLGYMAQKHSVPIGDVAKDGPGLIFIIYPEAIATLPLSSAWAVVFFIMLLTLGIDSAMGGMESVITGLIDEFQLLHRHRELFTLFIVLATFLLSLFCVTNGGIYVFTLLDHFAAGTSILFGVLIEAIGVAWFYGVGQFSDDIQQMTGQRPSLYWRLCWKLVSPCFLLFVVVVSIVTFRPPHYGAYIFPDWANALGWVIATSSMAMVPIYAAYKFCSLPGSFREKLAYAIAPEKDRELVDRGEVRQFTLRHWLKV

hERG (KCNH2) = hERG (KCNH2) (Homo sapiens, UniProt Q12809); experiment: Inhibitor of HERG_DOFETILIDE in the Eurofins Cerep SafetyScreen44 (BI) by Scintillation counting (Cerep_4094); parameters: scale not given: the % may be the effect or the level left; details: probe [3H] dofetilide, compound concentration 10 uM, read-out: % Ctrl
[9] = target: Muscarinic acetylcholine receptor M3 (Homo sapiens) (UniProt P20309); experiment: M3 Eurofins-Cerep binding assay; parameters: ligand concentration 0.2 nM; details: Compound concentration 10.0 uM
[10] = target: Sodium-dependent noradrenaline transporter (Homo sapiens) (UniProt P23975); experiment: norepinephrine transporter Eurofins-Cerep binding assay; parameters: ligand concentration 1 nM; details: Compound concentration 10.0 uM
[11] = target: T1, Neuropeptide Y receptor type 2 (Homo sapiens, UniProt P49146); experiment: Radioligand binding assay (NPY2R, BHK); format: cell-based, BHK-21
T1 sequence (P49146 whole entry): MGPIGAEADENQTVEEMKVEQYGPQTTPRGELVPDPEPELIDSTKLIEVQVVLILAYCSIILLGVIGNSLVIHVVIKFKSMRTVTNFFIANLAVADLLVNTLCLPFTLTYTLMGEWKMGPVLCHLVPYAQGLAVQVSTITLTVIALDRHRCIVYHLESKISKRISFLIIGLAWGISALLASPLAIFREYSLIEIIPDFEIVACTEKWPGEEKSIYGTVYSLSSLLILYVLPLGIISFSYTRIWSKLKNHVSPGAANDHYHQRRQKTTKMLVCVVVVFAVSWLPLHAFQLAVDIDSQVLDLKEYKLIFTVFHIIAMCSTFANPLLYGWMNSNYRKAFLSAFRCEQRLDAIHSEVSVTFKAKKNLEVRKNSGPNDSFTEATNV

[12] = target: Serotonin 1 (5-HT1) receptor (Rattus norvegicus) (UniProt P28564+P30940+P19327+P28565); experiment: Activity against 5HT1/R in the Eurofins Panlabs screen (BI) by Radioactive Assay; format: protein assay; details: Compound concentration 10.0 uM
[13] = target: Adenosine receptor A2a (Rattus norvegicus) (UniProt P30543); experiment: Activity against A2A/R in the Eurofins Panlabs screen (BI) by Radioactive Assay; details: Compound concentration 10.0 uM
[14] = target: Acetyl-coenzyme A synthetase, cytoplasmic (Homo sapiens) (UniProt Q9NR19); experiment: Inhibitor of ACOASYN in the Eurofins Panlabs screen (BI) by Radioactive Assay; details: Compound concentration 100.0 uM
[15] = target: Adrenergic receptor alpha-2 (Rattus norvegicus) (UniProt P22086+P19328+P22909); experiment: Activity against ALPHA2/R in the Eurofins Panlabs screen (BI) by Others; format: protein assay; details: Compound concentration 10.0 uM
[16] = target: Type-1 angiotensin II receptor (Oryctolagus cuniculus) (UniProt P34976); experiment: Activity against ATII/RB in the Eurofins Panlabs screen (BI) by Radioactive Assay; details: Compound concentration 10.0 uM
[17] = target: B2 bradykinin receptor (Cavia porcellus) (UniProt O70526); experiment: Activity against B2/GP in the Eurofins Panlabs screen (BI) by Radioactive Assay; details: Compound concentration 10.0 uM
[18] = target: Beta-1 adrenergic receptor (Oryctolagus cuniculus) (UniProt A0A4Y6F0G0); experiment: Activity against BETA1/RB in the Eurofins Panlabs screen (BI) by Radioactive Assay; details: Compound concentration 10.0 uM
Rattus norvegicus = species on record: Rattus norvegicus; experiment: Inhibitor of CALCINEUPP2B in the Eurofins Panlabs screen (BI) by Radioactive Assay; details: Compound concentration 10.0 uM
[19] = target: Carbonic anhydrase 6 (Homo sapiens) (UniProt P23280); experiment: Inhibitor of CANHYDRASE in the Eurofins Panlabs screen (BI) by absorption of electromagnetic radiation; details: Compound concentration 10.0 uM
Carbonic anhydrase 6 (Homo sapiens), sequence (P23280 whole entry): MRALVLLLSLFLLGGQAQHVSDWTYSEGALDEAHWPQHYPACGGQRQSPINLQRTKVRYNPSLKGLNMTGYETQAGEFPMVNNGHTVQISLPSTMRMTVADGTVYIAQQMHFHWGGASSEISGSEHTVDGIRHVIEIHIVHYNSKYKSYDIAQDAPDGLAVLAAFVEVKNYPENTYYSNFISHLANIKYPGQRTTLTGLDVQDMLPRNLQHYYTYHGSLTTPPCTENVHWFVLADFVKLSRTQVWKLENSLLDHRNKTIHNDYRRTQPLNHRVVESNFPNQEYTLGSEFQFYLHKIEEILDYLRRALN

[20] = target: D(1A) dopamine receptor (Rattus norvegicus) (UniProt P18901); experiment: Activity against D1/R in the Eurofins Panlabs screen (BI) by Radioactive Assay; details: Compound concentration 10.0 uM
[21] = target: Epidermal growth factor receptor (Homo sapiens) (UniProt P00533); experiment: Inhibitor of EGFRTYRKIN in the Eurofins Panlabs screen (BI) by Fluorimetry; details: Compound concentration 10.0 uM
[22] = target: Neutrophil elastase (Homo sapiens) (UniProt P08246); experiment: Activity against ELASTASEPMN in the Eurofins Panlabs screen (BI) by absorption of electromagnetic radiation; details: Compound concentration 30.0 uM
[23] = target: Glycine receptor (Rattus norvegicus) (UniProt P22771+P24524+P07727+P20781); experiment: Activity against GLYCINSTRS in the Eurofins Panlabs screen (BI) by Radioactive Assay; format: protein-complex assay; details: Compound concentration 10.0 uM
[24] = target: Interleukin-1 receptor type 1 (Mus musculus) (UniProt P13504); experiment: Activity against IL-1ALPHA/M in the Eurofins Panlabs screen (BI) by Radioactive Assay; details: Compound concentration 10.0 uM
[25] = target: Potassium voltage-gated channel subfamily V member 1 (Rattus norvegicus) (UniProt P97557); experiment: Activity against K+/KV/R in the Eurofins Panlabs screen (BI) by Radioactive Assay; details: Compound concentration 10.0 uM
[26] = target: Leukotriene A-4 hydrolase (Cavia porcellus) (UniProt P19602); experiment: Inhibitor of LTA4HYD in the Eurofins Panlabs screen (BI) by Radioactive Assay; details: Compound concentration 100.0 uM
Leukotriene A-4 hydrolase (Cavia porcellus), sequence (P19602 whole entry): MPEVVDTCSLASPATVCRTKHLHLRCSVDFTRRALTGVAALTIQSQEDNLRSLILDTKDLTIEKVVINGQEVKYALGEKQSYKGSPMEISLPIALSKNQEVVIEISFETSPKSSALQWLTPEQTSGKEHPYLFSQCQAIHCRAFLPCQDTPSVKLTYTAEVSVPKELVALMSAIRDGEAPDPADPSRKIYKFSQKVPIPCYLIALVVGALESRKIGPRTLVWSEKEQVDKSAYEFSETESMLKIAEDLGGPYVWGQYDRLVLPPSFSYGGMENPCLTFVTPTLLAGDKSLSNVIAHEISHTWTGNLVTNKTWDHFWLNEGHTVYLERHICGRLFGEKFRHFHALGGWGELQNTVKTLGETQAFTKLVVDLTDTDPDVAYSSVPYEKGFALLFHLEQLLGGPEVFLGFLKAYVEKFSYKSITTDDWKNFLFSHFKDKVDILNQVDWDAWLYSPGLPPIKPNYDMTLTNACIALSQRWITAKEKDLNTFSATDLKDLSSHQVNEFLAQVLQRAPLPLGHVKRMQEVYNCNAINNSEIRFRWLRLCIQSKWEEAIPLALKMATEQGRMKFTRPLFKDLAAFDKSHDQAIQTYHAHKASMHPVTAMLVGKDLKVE

[27] = target: Mu-type opioid receptor (Cavia porcellus) (UniProt P97266); experiment: Activity against MU/GP in the Eurofins Panlabs screen (BI) by Radioactive Assay; details: Compound concentration 10.0 uM
[28] = target: Neprilysin (Homo sapiens) (UniProt P08473); experiment: Activity against NEUTRALENDOP in the Eurofins Panlabs screen (BI) by absorption of electromagnetic radiation; details: Compound concentration 10.0 uM
[29] = target: Glutamate receptor ionotropic, NMDA 2A (Rattus norvegicus) (UniProt Q00959); experiment: Activity against NMDAPHSI/R in the Eurofins Panlabs screen (BI) by Radioactive Assay; details: Compound concentration 10.0 uM
Mus musculus = species on record: Mus musculus; experiment: Inhibitor of PHORBOLE/M in the Eurofins Panlabs screen (BI) by Radioactive Assay; details: Compound concentration 10.0 uM
[30] = target: Tumor necrosis factor (Homo sapiens) (UniProt P01375); experiment: Activity against TNFA/HU/HELA in the Eurofins Panlabs screen (BI) by Radioactive Assay; details: Compound concentration 10.0 uM
Tumor necrosis factor (Homo sapiens), sequence (P01375 whole entry): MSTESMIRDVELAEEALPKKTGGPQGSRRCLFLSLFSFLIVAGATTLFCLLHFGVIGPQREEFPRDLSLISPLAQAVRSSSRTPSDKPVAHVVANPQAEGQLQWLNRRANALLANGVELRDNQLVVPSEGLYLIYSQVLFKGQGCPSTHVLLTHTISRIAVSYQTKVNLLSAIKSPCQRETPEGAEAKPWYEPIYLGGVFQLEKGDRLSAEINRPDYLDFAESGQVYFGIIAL

Prostaglandin G/H synthase 2 (Homo sapiens), sequence (P35354 whole entry): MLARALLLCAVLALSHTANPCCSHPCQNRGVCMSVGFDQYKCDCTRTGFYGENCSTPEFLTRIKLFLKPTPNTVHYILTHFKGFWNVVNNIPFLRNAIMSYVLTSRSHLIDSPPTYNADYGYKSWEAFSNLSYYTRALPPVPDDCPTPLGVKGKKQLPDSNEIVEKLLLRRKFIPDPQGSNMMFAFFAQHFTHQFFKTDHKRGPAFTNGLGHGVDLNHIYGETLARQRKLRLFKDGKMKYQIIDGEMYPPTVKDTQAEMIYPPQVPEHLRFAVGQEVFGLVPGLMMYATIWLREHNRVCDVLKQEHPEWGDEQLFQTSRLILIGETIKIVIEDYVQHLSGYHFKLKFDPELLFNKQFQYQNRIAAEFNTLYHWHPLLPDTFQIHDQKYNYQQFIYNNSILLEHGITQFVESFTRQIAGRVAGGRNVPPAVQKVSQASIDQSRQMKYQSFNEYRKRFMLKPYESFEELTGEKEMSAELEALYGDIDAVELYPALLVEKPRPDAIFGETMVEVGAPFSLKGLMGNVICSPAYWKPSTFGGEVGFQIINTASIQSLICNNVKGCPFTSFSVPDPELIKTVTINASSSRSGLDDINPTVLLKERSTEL

N=C(N)NCCC[C@@H](NC(=O)C(c1ccccc1)c1ccccc1)C(=O)NCc1ccc(CNC(N)=O)cc1 was tested. Which residual activity [1] did it give?
The residual activity was 61%.

And the residual activity [2]?
The residual activity was 56%.

And the residual activity [3]?
Its residual activity is 91%.

And the residual activity [4]?
Its residual activity is 103%.

What about the residual activity [5] of the same compound?
Its residual activity is 102%.

And the residual activity [6]?
Its residual activity is 106%.

And the activity at 10 µM [7]?
The activity at 10 µM was 70% (not active).

And the residual activity [8]?
The residual activity was 79%.

And the activity at 10 µM (hERG (KCNH2))?
The activity at 10 µM was 79% (not active).

And the residual activity [9]?
Its residual activity is 87%.

What about the residual activity [10] of the same compound?
The residual activity was 91%.

What about the IC50 [11] of the same compound?
The IC50 was > 1 µM (not active).

What about the residual activity [12] of the same compound?
Its residual activity is 90%.

What about the residual activity [13] of the same compound?
The residual activity was 97%.

And the residual activity [14]?
Its residual activity is 100%.

What about the residual activity [15] of the same compound?
The residual activity was 96%.

What about the residual activity [16] of the same compound?
The residual activity was 99%.

And the residual activity [17]?
The residual activity was 115%.

And the residual activity [18]?
Its residual activity is 82%.

What about the residual activity (Rattus norvegicus) of the same compound?
Its residual activity is 90%.

And the residual activity [19]?
The residual activity was 96%.

And the residual activity [20]?
The residual activity was 103%.

And the residual activity [21]?
The residual activity was 83%.

What about the residual activity [22] of the same compound?
The residual activity was 94%.

And the residual activity [23]?
The residual activity was 81%.

And the residual activity [24]?
The residual activity was 88%.

What about the residual activity [25] of the same compound?
Its residual activity is 89%.

What about the residual activity [26] of the same compound?
Its residual activity is 102%.

What about the residual activity [27] of the same compound?
The residual activity was 104%.

And the residual activity [28]?
The residual activity was 102%.

What about the residual activity [29] of the same compound?
The residual activity was 77%.

What about the residual activity (Mus musculus) of the same compound?
The residual activity was 95%.

What about the residual activity [30] of the same compound?
Its residual activity is 114%.
